Test results as given in ChEMBL document CHEMBL5131488, “Design and synthesis of pyrido[2,3-d]pyrimidine derivatives for a novel PAC1 receptor antagonist” (Eur J Med Chem, 2022).
Values after ≈ are worked out from the molar mass of the structure shown. Each block holds one compound with its values, some of them ahead of it. Active and inactive are the calls of the source. No cut-off for these calls is given here.

Experiments:
[1] = target: T1, Pituitary adenylate cyclase-activating polypeptide type I receptor (Homo sapiens, UniProt P41586); assay: Antagonist activity at PAC-1 receptor (unknown origin) expressed in CHO cells assessed as inhibition of PACAP-induced CREB phosphorylation at 1 nM pretreated for 30 mins followed by PACAP stimulation for 30 mins by western blot analysis; assay type: cell-based; details: filed as antagonist, time 60.0 min
Target sequence in this assay (P41586 21-468 limits assumed): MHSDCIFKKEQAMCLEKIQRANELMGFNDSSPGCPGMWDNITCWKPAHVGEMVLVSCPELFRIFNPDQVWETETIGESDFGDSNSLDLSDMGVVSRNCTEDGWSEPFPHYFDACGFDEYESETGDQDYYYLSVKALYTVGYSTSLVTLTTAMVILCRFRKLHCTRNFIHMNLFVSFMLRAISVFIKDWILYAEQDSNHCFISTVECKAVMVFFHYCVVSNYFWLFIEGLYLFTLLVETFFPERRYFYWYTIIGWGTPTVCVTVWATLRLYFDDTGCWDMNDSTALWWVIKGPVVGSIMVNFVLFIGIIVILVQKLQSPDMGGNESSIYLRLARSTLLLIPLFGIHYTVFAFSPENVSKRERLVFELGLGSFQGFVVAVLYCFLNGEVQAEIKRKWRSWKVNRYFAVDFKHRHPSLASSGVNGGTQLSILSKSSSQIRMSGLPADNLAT

Mus musculus [2] = assay: Inhibition of PACAP-induced aversive behaviour in it dosed ddY mouse administered as single dose and measured for 30 mins; assay type: functional, organism-based; details: dose 10-100 pmol, DDE = dose-dependent effect
[3] = target: T1, Pituitary adenylate cyclase-activating polypeptide type I receptor; assay: Antagonist activity at PAC-1 receptor (unknown origin) expressed in CHO cells assessed as inhibition of PACAP-induced increase in intracellular cAMP level pretreated for 30 mins followed by PACAP stimulation measured after 1 hr by cAMP-Glo assay; assay type: cell-based; details: for Activity: filed as antagonist, time 90.0 min, DDE = dose-dependent effect
Mus musculus [4] = assay: Antiallodynic activity in ddY mouse assessed as inhibition of PACAP-evoked mechanical allodynia at 10 to 100 pmol administered via IT as single dose and measured after 14 days; assay type: functional, organism-based; details: dose 10-100 pmol, time 14.0 day
Mus musculus [5] = assay: Antiallodynic activity in ddY mouse assessed as inhibition of spinal nerve ligation-evoked mechanical allodynia at 10 pmol administered via IT as single dose and measured after 3 hrs; assay type: functional, organism-based
Mus musculus [6] = assay: Antiallodynic activity in ddY mouse assessed as inhibition of spinal nerve ligation-evoked mechanical allodynia at 10 pmol administered via IT as single dose and measured after 2 to 4 hrs; assay type: functional, organism-based; details: time 2-4 hrs
[7] = Aqueous solubility of the compound in phosphate buffered saline at 100 uM at pH 7.4 by HPLC analysis; assay type: physicochemical
[8] = Permeability of the compound across apical to basolateral side in human Caco-2 cells at 25 uM incubated for 2 hrs by LC/MS/MS analysis; assay type: ADME, cell-based; details: read-out: permeability
[9] = Metabolic stability in human liver microsomes assessed as parent compound remaining in presence of NADPH at 0.5 uM measured after 10 mins by LC-MS/MS analysis; assay type: ADME, Microsome; details: read-out: Stability
[10] = Metabolic stability in mouse liver microsomes assessed as parent compound remaining in presence of NADPH at 0.5 uM measured after 10 mins by LC-MS/MS analysis; assay type: ADME, Microsome; details: read-out: Stability
[11] = Metabolic stability in human liver microsomes assessed as parent compound remaining in presence of NADPH at 0.5 uM measured after 60 mins by LC-MS/MS analysis; assay type: ADME, Microsome; details: read-out: Stability
[12] = Metabolic stability in mouse liver microsomes assessed as parent compound remaining in presence of NADPH at 0.5 uM measured after 60 mins by LC-MS/MS analysis; assay type: ADME, Microsome; details: read-out: Stability
[13] = Plasma protein binding in human measured after 5 hrs by LC-MS/MS analysis; assay type: ADME, cell-free; details: read-out: PPB (converted)
[14] = Plasma protein binding in mouse measured after 5 hrs by LC-MS/MS analysis; assay type: ADME, cell-free; details: read-out: PPB (converted)
[15] = Cmax in C57BL/6J mouse at 30 mg/kg, ip measured up to 24 hrs by LC-MS/MS analysis; assay type: ADME, organism-based; parameters: time < 24 hrs, dose 30 mg/kg, route ip; details: in vivo
[16] = Cmax in C57BL/6J mouse at 30 mg/kg, po measured up to 24 hrs by LC-MS/MS analysis; assay type: ADME, organism-based; parameters: dose 30 mg/kg, time < 24 hrs, route po; details: in vivo
[17] = Tmax in C57BL/6J mouse at 30 mg/kg, ip measured up to 24 hrs by LC-MS/MS analysis; assay type: ADME, organism-based; details: in vivo
[18] = Tmax in C57BL/6J mouse at 30 mg/kg, po measured up to 24 hrs by LC-MS/MS analysis; assay type: ADME, organism-based; details: in vivo
[19] = Half life in C57BL/6J mouse at 30 mg/kg, ip measured up to 24 hrs by LC-MS/MS analysis; assay type: ADME, organism-based; details: in vivo
[20] = Half life in C57BL/6J mouse at 30 mg/kg, po measured up to 24 hrs by LC-MS/MS analysis; assay type: ADME, organism-based; details: in vivo
Mus musculus [21] = assay: Antiallodynic activity in ddY mouse assessed as inhibition of SNL-induced mechanical allodynia at 30 mg/kg, ip administered once daily for 7 days and measured at 1 hr post-last dosage; assay type: functional, organism-based; details: time 7.0 day
Mus musculus [22] = assay: Antiallodynic activity in ddY mouse assessed as inhibition of SNL-induced mechanical allodynia at 30 mg/kg, ip administered once daily for 7 days and measured for 3 days after termination of repetitive drug administration; assay type: functional, organism-based; details: time 7.0 day

Activity [1]: Active
Structure (SMILES): CCCc1cccc(C2CC(=O)Nc3nc(N)[nH]c(=O)c32)c1 (centres undefined)

Activity [1]: Active
Structure (SMILES): CCOc1ccc(C2CC(=O)Nc3nc(N)[nH]c(=O)c32)cc1OC (centres undefined)

Activity [1]: Active
Structure (SMILES): CCc1cccc(C2CC(=O)Nc3nc(N)[nH]c(=O)c32)c1 (centres undefined)

Activity [1]: Active
Structure (SMILES): CCOc1ccc(C2CC(=O)Nc3nc(N)[nH]c(=O)c32)cc1C (centres undefined)

Activity [1]: Active
Structure (SMILES): COc1cccc(C2CC(=O)Nc3nc(N)[nH]c(=O)c32)c1 (centres undefined)

Activity [1]: Active
Structure (SMILES): Nc1nc2c(c(=O)[nH]1)C(c1cccc(Cl)c1)CC(=O)N2 (centres undefined)

Activity [1]: Active
Structure (SMILES): CCOc1ccc(C2CC(=O)Nc3nc(N)[nH]c(=O)c32)cc1Cl (centres undefined)

Activity [1]: Active
Structure (SMILES): CCOc1ccc(C2CC(=O)Nc3nc(N)[nH]c(=O)c32)cc1Br (centres undefined)

Activity [1]: Active | IC50 [3]: 0.11 nM | Activity [3]: Dde | solubility at 100 µM [7]: 93.3 µM (≈ 31.7 µg/mL) | Papp A→B at 2 h, 25 µM [8]: 1.6 ×10⁻⁶ cm/s | remaining at 10 min, 0.5 µM [9]: 95% | remaining at 10 min, 0.5 µM [10]: 91% | remaining at 1 h, 0.5 µM [11]: 92% | remaining at 1 h, 0.5 µM [12]: 93% | fraction unbound at 5 h [13]: 0.11 | fraction unbound at 5 h [14]: 0.298 | Cmax [15]: 40.6 µM | Cmax [16]: 20.8 µM | Tmax [17]: 1 h | Tmax [18]: 0.83 h | half-life [19]: 2.4 h | half-life [20]: 2.75 h
Structure (SMILES): Nc1nc2c(c(=O)[nH]1)C(c1cccc(OC(F)(F)F)c1)CC(=O)N2 (centres undefined)
inhibition (Mus musculus [2]): Dde | Activity (Mus musculus [4]): Active | Activity (Mus musculus [5]): Active | Activity (Mus musculus [6]): Active | Activity (Mus musculus [21]): Active | Activity (Mus musculus [22]): Active

Activity [1]: Active
Structure (SMILES): C=CCOc1cccc(C2CC(=O)Nc3nc(N)[nH]c(=O)c32)c1 (centres undefined)

Activity [1]: Active
Structure (SMILES): CCOc1cc(C2CC(=O)Nc3nc(N)[nH]c(=O)c32)ccc1OC (centres undefined)

Activity [1]: Active | IC50 [3]: 1.48 nM | Activity [3]: Dde | solubility at 100 µM [7]: 92.2 µM (≈ 31.6 µg/mL) | Papp A→B at 2 h, 25 µM [8]: 0.3 ×10⁻⁶ cm/s | remaining at 10 min, 0.5 µM [9]: 93% | remaining at 10 min, 0.5 µM [10]: 96% | remaining at 1 h, 0.5 µM [11]: 91% | remaining at 1 h, 0.5 µM [12]: 94% | fraction unbound at 5 h [13]: 0.304 | fraction unbound at 5 h [14]: 0.505 | Cmax [15]: 14.3 µM | Cmax [16]: 0.79 µM | Tmax [17]: 0.67 h | Tmax [18]: 0.5 h | half-life [19]: 2.19 h | half-life [20]: 1.72 h
Structure (SMILES): C=CCOc1ccc(C2CC(=O)Nc3nc(N)[nH]c(=O)c32)cc1OC (centres undefined)
inhibition (Mus musculus [2]): Dde | Activity (Mus musculus [4]): Active | Activity (Mus musculus [5]): Active | Activity (Mus musculus [6]): Active | Activity (Mus musculus [21]): Active

Activity [1]: Active
Structure (SMILES): CCOc1ccc(C2CC(=O)Nc3nc(N)[nH]c(=O)c32)cc1OCC (centres undefined)

Activity [1]: Active | solubility at 100 µM [7]: 27.9 µM (≈ 8.38 µg/mL) | Papp A→B at 2 h, 25 µM [8]: 0.3 ×10⁻⁶ cm/s | remaining at 10 min, 0.5 µM [9]: 93% | remaining at 10 min, 0.5 µM [10]: 92% | remaining at 1 h, 0.5 µM [11]: 93% | remaining at 1 h, 0.5 µM [12]: 84% | fraction unbound at 5 h [13]: 0.345 | fraction unbound at 5 h [14]: 0.474 | Cmax [15]: 29.3 µM | Cmax [16]: 1.93 µM | Tmax [17]: 0.25 h | Tmax [18]: 0.25 h | half-life [19]: 2.29 h | half-life [20]: 1.32 h
Structure (SMILES): CCOc1cccc(C2CC(=O)Nc3nc(N)[nH]c(=O)c32)c1 (centres undefined)
inhibition (Mus musculus [2]): Dde | Activity (Mus musculus [4]): Active

Activity [1]: Active
Structure (SMILES): CCCOc1cccc(C2CC(=O)Nc3nc(N)[nH]c(=O)c32)c1 (centres undefined)

Activity [1]: Active
Structure (SMILES): Nc1nc2c(c(=O)[nH]1)C(c1cccc(Br)c1)CC(=O)N2 (centres undefined)

Activity [1]: Active
Structure (SMILES): CCCOc1ccc(C2CC(=O)Nc3nc(N)[nH]c(=O)c32)cc1OC (centres undefined)

Activity [1]: Active
Structure (SMILES): Nc1nc2c(c(=O)[nH]1)C(c1ccc(F)c(F)c1)CC(=O)N2 (centres undefined)

Activity [1]: Active
Structure (SMILES): CCCCc1cccc(C2CC(=O)Nc3nc(N)[nH]c(=O)c32)c1 (centres undefined)

Activity [1]: Active
Structure (SMILES): CCCOc1cc(C2CC(=O)Nc3nc(N)[nH]c(=O)c32)ccc1OC (centres undefined)
